In PMC6689975, “Novel Cell Wall Antifungals Reveal a Special Synergistic Activity in pbr1 Mutants Resistant to the Glucan Synthesis Antifungals Papulacandins and Echinocandins” (Frontiers in Microbiology, 2019):
Values after ≈ are worked out from the molar mass of the structure shown. Read-outs that look alike come from different tables or passages of the source.

Legend:
Assay in all cases: microbe, parasite or virus in culture
C. albicans wild-type [1] = system: C. albicans wild-type; set-up: species or system whole yeast cells; micro-culture broth dilution MIC in YES at 30 C, turbidity, complete growth inhibition; details: Candida albicans
Experimental: (§1) Standard YEPD (Yeast Extract, Peptone, Dextrose) ([Sherman, 1990]), YEPD+S (YEPD with 1.2M sorbitol), YES (Yeast Extract, Dextrose and Supplements of Adenine, Histidine, Leucine, Uracil and Lysine) ([Alfa et al., 1993]) and YES+S (YES with 1.2 M sorbitol) ([Ribas et al., 1991]; [Ishiguro et al., 1997]), media were used for determination of MIC values of the tested compounds. A stock solution of 10 mg/ml of each tested compounds was prepared in DMSO and serial dilutions in DMSO were prepared. The final concentration of DMSO was 2% in the YEPD medium. […] The serial dilutions of compounds were dispensed into test tubes with 1 ml of YEPD or YEPD+S to make final concentrations of 200, 100, 50, 25, 12.5, 6.26, 3.125, 1.6, 0.8 and 0.4 μg/ml. The tested yeast strains were previously grown in YEPD, YEPD+S, YES or YES+S agar plates at 30°C for 48 h. Micro-culture assays of large numbers of samples were analyzed as described) ([Martins et al., 2011]). Essentially early log-phase cells were grown in YEPD, YEPD+S, YES or YES+S (1.2 M sorbitol) medium at 30°C, and diluted to cell density of 4 X 10^6 cells/ml in YEPD, YEPD+S, YES or YES+S medium and aliquots of 100 μl were dispensed into each small test tube (3 ml test tube size). Then, another 100 μl of YEPD, YEPD+S, YES or YES+S with the corresponding dilution of each compound at 2X concentration (4% DMSO) was added. The final volume was 200 μl, with the cells diluted to of 2 X 10^6 cells/ml and each compound diluted to 1X final concentration, containing increasing concentrations of antifungal (0, 1, 2, 5, 10, 20, 50, 100 and 200 μg/ml) or an equivalent volume of solvent (2% DMSO). The cells were grown at 30°C in an orbital roller and turbidity was analyzed after 24 and 48 h of incubation. The MIC was determined as the minimal concentration of tested compound that produced complete cell growth inhibition and kept the medium clear. The MIC values were calculated from at least three independent experiments. Next, the first generation of isochromanones (1E-16E) was also screened in YES medium (Table 5) and exerted a weaker antifungal potency than in YEPD medium and also than the second family of isochromanones in YES medium (17E-30E) (Table 6). The strains are partly different from the previously mentioned ones (Tables 5, 6) analyzing two wild type C. albicans strains because they behaved similarly in YEPD. It is remarkable that there was no effect against either the C. albicans, the S. cerevisiae, or the S. pombe wild-type strains, except with 30E.

[2] = system: T1, S. pombe wild-type 972 h-; set-up: species or system whole yeast cells; micro-culture broth dilution MIC in YES at 30 C, turbidity, complete growth inhibition; details: Schizosaccharomyces pombe
T1 construct: 972 h-
Experimental: as §1

[3] = system: T2, S. cerevisiae wild-type CVX12-3A; set-up: species or system whole yeast cells; micro-culture broth dilution MIC in YES at 30 C, turbidity, complete growth inhibition; details: Saccharomyces cerevisiae
T2 construct: CVX12-3A
Experimental: as §1

C. albicans wild-type [4] = system: C. albicans wild-type; set-up: species or system whole yeast cells; macro tube broth dilution MIC in YEPD at 30 C, visual clearness of medium; details: Candida albicans, 48 h, read-out: MIC
Experimental: (§2) Standard YEPD (Yeast Extract, Peptone, Dextrose) ([Sherman, 1990]), YEPD+S (YEPD with 1.2M sorbitol), YES (Yeast Extract, Dextrose and Supplements of Adenine, Histidine, Leucine, Uracil and Lysine) ([Alfa et al., 1993]) and YES+S (YES with 1.2 M sorbitol) ([Ribas et al., 1991]; [Ishiguro et al., 1997]), media were used for determination of MIC values of the tested compounds. A stock solution of 10 mg/ml of each tested compounds was prepared in DMSO and serial dilutions in DMSO were prepared. The final concentration of DMSO was 2% in the YEPD medium. […] The serial dilutions of compounds were dispensed into test tubes with 1 ml of YEPD or YEPD+S to make final concentrations of 200, 100, 50, 25, 12.5, 6.26, 3.125, 1.6, 0.8 and 0.4 μg/ml. The tested yeast strains were previously grown in YEPD, YEPD+S, YES or YES+S agar plates at 30°C for 48 h. For inoculation of YEPD or YEPD+S macro test tubes a suspension of tested fungus was produced with 10^5 cfu/ml (cfu - colony forming unit). 10 μl of suspension was used for inoculation of each tube. After 48 h incubation at 30°C the tubes were checked. The MIC value is the lowest concentration of the tested compound that could inhibit the fungal growth and the medium remained clear. From each tube 10 μl culture was plated on YEPD agar medium to check the contamination. The MIC tests were carried out in three parallels. The screening of the first generation of isochromanones was carried out in YEPD and YEPD+S media (1E-16E). The fungal strains analyzed are: C. albicans wild-type ATCC 26555, SC5314 and ATCC 90028, S. cerevisiae wild-type CVX12-3A and pbr1-1 mutant, and S. pombe wild-type (972h^–), pbr1-8 mutant and pbr1-6 mutant. The bold numbers in Tables 4–6 indicate the more efficient compounds. […] The weak or moderate efficacy against the C. albicans wild-type strains was observed by some substances (3E, 4Z, 5Z, 10E, 15, and 16E). The efficiency toward the S. pombe pbr1-6 mutant strain was the highest inhibitory activity, except 7E, 11E, 12 and 14E. […] As regards the other S. pombe pbr1-8 mutant strain, the antifungal activity of the tested compounds was slightly lower, but the substances with the best activity are partly identical to the best compounds mentioned with pbr1-6, (i.e., 1E, 3E, 4Z, 5Z).

C. albicans wild-type [5] = system: C. albicans wild-type; set-up: species or system whole yeast cells; macro tube broth dilution MIC in YEPD at 30 C, visual clearness of medium; details: Candida albicans, 48 h, read-out: MIC; remark: listed apart in the source
Experimental: as §2

C. albicans wild-type [6] = system: C. albicans wild-type; set-up: species or system whole yeast cells; macro tube broth dilution MIC in YEPD at 30 C, visual clearness of medium; details: Candida albicans, 48 h, read-out: MIC; remark: listed apart in the source
Experimental: as §2

[7] = system: T1, S. pombe wild-type 972 h-; set-up: species or system whole yeast cells; macro tube broth dilution MIC in YEPD at 30 C, visual clearness of medium; details: Schizosaccharomyces pombe, 48 h, read-out: MIC
Experimental: as §2

[8] = system: T2, S. cerevisiae wild-type CVX12-3A; set-up: species or system whole yeast cells; macro tube broth dilution MIC in YEPD at 30 C, visual clearness of medium; details: Saccharomyces cerevisiae, 48 h, read-out: MIC
Experimental: as §2

[9] = system: T3, Schizosaccharomyces pombe S. p.^a (wild-type 972 h-); set-up: species or system yeast; micro tube dilution MIC in YES (± 1.2 M sorbitol), complete growth inhibition by turbidity; details: 48 h, YES + 1.2 M sorbitol
T3 construct: 972 h-
Experimental: as §1, with “experiments.” for “experiments. Next, the first generation of isochromanones (1E-16E) was also screened in YES medium (Table 5) and exerted a weaker antifungal potency than in YEPD medium and also than the second family of isochromanones in YES medium (17E-30E) (Table 6). The strains are partly different from the previously mentioned ones (Tables 5, 6) analyzing two wild type C. albicans strains because they behaved similarly in YEPD. It is remarkable that there was no effect against either the C. albicans, the S. cerevisiae, or the S. pombe wild-type strains, except with 30E.”

[10] = system: T4, Saccharomyces cerevisiae S. c.^d (wild-type CVX12-3A); set-up: species or system yeast; micro tube dilution MIC in YES (± 1.2 M sorbitol), complete growth inhibition by turbidity; details: 48 h, YES + 1.2 M sorbitol
T4 construct: CVX12-3A
Experimental: as §1, with “experiments.” for “experiments. Next, the first generation of isochromanones (1E-16E) was also screened in YES medium (Table 5) and exerted a weaker antifungal potency than in YEPD medium and also than the second family of isochromanones in YES medium (17E-30E) (Table 6). The strains are partly different from the previously mentioned ones (Tables 5, 6) analyzing two wild type C. albicans strains because they behaved similarly in YEPD. It is remarkable that there was no effect against either the C. albicans, the S. cerevisiae, or the S. pombe wild-type strains, except with 30E.”

[11] = system: Candida albicans C. a.^g (Table 6); set-up: species or system yeast; micro tube dilution MIC in YES (± 1.2 M sorbitol), complete growth inhibition by turbidity; details: 48 h, YES + 1.2 M sorbitol
Experimental: as §1, with “experiments.” for “experiments. Next, the first generation of isochromanones (1E-16E) was also screened in YES medium (Table 5) and exerted a weaker antifungal potency than in YEPD medium and also than the second family of isochromanones in YES medium (17E-30E) (Table 6). The strains are partly different from the previously mentioned ones (Tables 5, 6) analyzing two wild type C. albicans strains because they behaved similarly in YEPD. It is remarkable that there was no effect against either the C. albicans, the S. cerevisiae, or the S. pombe wild-type strains, except with 30E.”

[12] = system: Candida albicans C. a.^f (Tables 5, 6); set-up: species or system yeast; micro tube dilution MIC in YES (± 1.2 M sorbitol), complete growth inhibition by turbidity; details: 48 h, YES + 1.2 M sorbitol
Experimental: as §1, with “experiments.” for “experiments. Next, the first generation of isochromanones (1E-16E) was also screened in YES medium (Table 5) and exerted a weaker antifungal potency than in YEPD medium and also than the second family of isochromanones in YES medium (17E-30E) (Table 6). The strains are partly different from the previously mentioned ones (Tables 5, 6) analyzing two wild type C. albicans strains because they behaved similarly in YEPD. It is remarkable that there was no effect against either the C. albicans, the S. cerevisiae, or the S. pombe wild-type strains, except with 30E.”

Compound	MIC (C. albicans wild-type [1]; read-out: MIC) [µg/mL]	MIC ([2]; read-out: MIC) [µg/mL]	MIC ([3]; read-out: MIC) [µg/mL]	MIC (C. albicans wild-type [4]) [µg/mL]	MIC (C. albicans wild-type [5]) [µg/mL]	MIC (C. albicans wild-type [6]) [µg/mL]	MIC [7] [µg/mL]	MIC [8] [µg/mL]	MIC (C. albicans wild-type [1]; YES medium, C. albicans strain f) [µg/mL]	MIC (C. albicans wild-type [1]; YES medium, C. albicans strain g) [µg/mL]	MIC ([2]; YES medium) [µg/mL]	MIC ([3]; YES medium) [µg/mL]	MIC [9] [µg/mL]	MIC [10] [µg/mL]	MIC [11] [µg/mL]	MIC [12] [µg/mL]
Cn1cccc1/C=C1\C(=O)OCc2ccccc21 [4Z]	> 200	> 200	> 200	50 (≈ 209 µM)	12.5 (≈ 52.2 µM)	25 (≈ 104 µM)	25 (≈ 104 µM)	12.5 (≈ 52.2 µM)								
O=C1OCc2ccccc2/C1=C/c1ccc[nH]1 [5Z]	> 200	> 200	> 200	100 (≈ 444 µM)	200 (≈ 888 µM)	100 (≈ 444 µM)	25 (≈ 111 µM)	100 (≈ 444 µM)								
O=C1OCc2ccccc2/C1=C\c1ccccc1Cl [8E]	> 200	> 200	> 200	> 200	200 (≈ 739 µM)	> 200	50 (≈ 185 µM)	100 (≈ 369 µM)								
COc1cccc(/C=C2/C(=O)OCc3ccccc32)c1OC [9E]	> 200	> 200	> 200	100 (≈ 337 µM)	100 (≈ 337 µM)	100 (≈ 337 µM)	50 (≈ 169 µM)	100 (≈ 337 µM)								
O=C1OCc2ccccc2/C1=C\c1ccccc1[N+](=O)[O-] [11E]	> 200	> 200	> 200	> 200	> 200	> 200	100 (≈ 356 µM)	200 (≈ 711 µM)								
O=C1OCc2ccccc2/C1=C\c1ccccc1Br [14E]	> 200	> 200	> 200	200 (≈ 635 µM)	> 200	200 (≈ 635 µM)	50 (≈ 159 µM)	25 (≈ 79.3 µM)								
O=C1OCc2ccccc2/C1=C\c1cccc(O)c1 [16E]	> 200	> 200	> 200	200 (≈ 793 µM)	50 (≈ 198 µM)	200 (≈ 793 µM)	100 (≈ 396 µM)	200 (≈ 793 µM)								
O=C1OCc2ccccc2/C1=C/c1ccc([N+](=O)[O-])cc1 [17Z]									> 200	> 200	> 200	> 200	> 200	> 200	> 200	> 200
